Test results from ChEMBL document CHEMBL5058645, “Data for DCP probe JNJ-6204” (2022).

Experiments:
[1] = biological target: 5-hydroxytryptamine receptor 6 (Homo sapiens) (UniProt P50406); conditions: Compound concentration 10.0 uM, tested as the 2H-labelled form
[2] = biological target: Dual specificity protein kinase CLK3 (Homo sapiens) (UniProt P49761); assay: CLK3(h) Kinase panel; conditions: Compound concentration 1.0 uM, tested as the 2H-labelled form
[3] = biological target: Tyrosine-protein kinase JAK2 (Homo sapiens) (UniProt O60674); assay: JAK2(h) Kinase panel; conditions: Compound concentration 1.0 uM, tested as the 2H-labelled form
[4] = biological target: Transient receptor potential cation channel subfamily M member 7 (Homo sapiens) (UniProt Q96QT4); assay: ChaK1(h) Kinase panel; conditions: Compound concentration 1.0 uM, tested as the 2H-labelled form
[5] = biological target: Serine/threonine-protein kinase D2 (Homo sapiens) (UniProt Q9BZL6); assay: PKD2(h) Kinase panel; conditions: Compound concentration 1.0 uM, tested as the 2H-labelled form
[6] = biological target: Dual specificity mitogen-activated protein kinase kinase 6 (Homo sapiens) (UniProt P52564); assay: MKK6(h) Kinase panel; conditions: Compound concentration 1.0 uM, tested as the 2H-labelled form
[7] = biological target: Rhodopsin kinase GRK7 (Homo sapiens) (UniProt Q8WTQ7); assay: GRK7(h) Kinase panel; conditions: Compound concentration 1.0 uM, tested as the 2H-labelled form
[8] = biological target: Tyrosine-protein kinase ABL1 (Homo sapiens) (UniProt P00519); assay: Abl(h) Kinase panel; conditions: Compound concentration 1.0 uM, tested as the 2H-labelled form
[9] = biological target: Serine/threonine-protein kinase Sgk2 (Homo sapiens) (UniProt Q9HBY8); assay: SGK2(h) Kinase panel; conditions: Compound concentration 1.0 uM, tested as the 2H-labelled form
[10] = biological target: 5-hydroxytryptamine receptor 1D (Homo sapiens) (UniProt P28221); conditions: Compound concentration 10.0 uM, tested as the 2H-labelled form
[11] = biological target: Serine/threonine-protein kinase OSR1 (Homo sapiens) (UniProt O95747); assay: OSR1(h) Kinase panel; conditions: Compound concentration 1.0 uM, tested as the 2H-labelled form
[12] = biological target: Serine/threonine-protein kinase MARK2 (Homo sapiens) (UniProt Q7KZI7); assay: PAR-1Balpha(h) Kinase panel; conditions: Compound concentration 1.0 uM, tested as the 2H-labelled form
[13] = biological target: Phosphatidylinositol 3-kinase C2 domain-containing subunit gamma (Homo sapiens) (UniProt O75747); assay: PI3KC2g(h) Kinase panel; conditions: Compound concentration 1.0 uM, tested as the 2H-labelled form
[14] = biological target: Dual specificity tyrosine-phosphorylation-regulated kinase 1A (Homo sapiens) (UniProt Q13627); assay: DYRK1A(h) Kinase panel; conditions: Compound concentration 1.0 uM, tested as the 2H-labelled form
[15] = biological target: Cyclin-dependent kinase 2 (Homo sapiens) (UniProt P24941); assay: CDK2/cyclinE(h) Kinase panel; conditions: Compound concentration 1.0 uM, tested as the 2H-labelled form
[16] = biological target: cAMP-dependent protein kinase catalytic subunit PRKX (Homo sapiens) (UniProt P51817); assay: PrKX(h) Kinase panel; conditions: Compound concentration 1.0 uM, tested as the 2H-labelled form
[17] = biological target: Inhibitor of nuclear factor kappa-B kinase subunit epsilon (Homo sapiens) (UniProt Q14164); assay: IKKepsilon(h) Kinase panel; conditions: Compound concentration 1.0 uM, tested as the 2H-labelled form
[18] = biological target: LIM domain kinase 1 (Homo sapiens) (UniProt P53667); assay: LIMK1(h) Kinase panel; conditions: Compound concentration 1.0 uM, tested as the 2H-labelled form
[19] = biological target: Serine/threonine-protein kinase DCLK2 (Homo sapiens) (UniProt Q8N568); assay: DCAMKL2(h) Kinase panel; conditions: Compound concentration 1.0 uM, tested as the 2H-labelled form
[20] = biological target: Muscarinic acetylcholine receptor M5 (Homo sapiens) (UniProt P08912); conditions: Compound concentration 10.0 uM, tested as the 2H-labelled form
[21] = biological target: 5-hydroxytryptamine receptor 3A (Homo sapiens) (UniProt P46098); conditions: Compound concentration 10.0 uM, tested as the 2H-labelled form
[22] = biological target: Serine/threonine-protein kinase N1 (Homo sapiens) (UniProt Q16512); assay: PRK1(h) Kinase panel; conditions: Compound concentration 1.0 uM, tested as the 2H-labelled form
[23] = biological target: SRSF protein kinase 2 (Homo sapiens) (UniProt P78362); assay: SRPK2(h) Kinase panel; conditions: Compound concentration 1.0 uM, tested as the 2H-labelled form
[24] = biological target: Angiopoietin-1 receptor (Homo sapiens) (UniProt Q02763); assay: Tie2 (h) Kinase panel; conditions: Compound concentration 1.0 uM, tested as the 2H-labelled form
[25] = biological target: Muscarinic acetylcholine receptor M1 (Homo sapiens) (UniProt P11229); conditions: Compound concentration 10.0 uM, tested as the 2H-labelled form
[26] = biological target: Alpha-1B adrenergic receptor (Homo sapiens) (UniProt P35368); conditions: Compound concentration 10.0 uM, tested as the 2H-labelled form
[27] = biological target: Tau-tubulin kinase 2 (Homo sapiens) (UniProt Q6IQ55); assay: TTBK2(h) Kinase panel; conditions: Compound concentration 1.0 uM, tested as the 2H-labelled form
Sequence of Tau-tubulin kinase 2 (Homo sapiens) (Q6IQ55 whole entry): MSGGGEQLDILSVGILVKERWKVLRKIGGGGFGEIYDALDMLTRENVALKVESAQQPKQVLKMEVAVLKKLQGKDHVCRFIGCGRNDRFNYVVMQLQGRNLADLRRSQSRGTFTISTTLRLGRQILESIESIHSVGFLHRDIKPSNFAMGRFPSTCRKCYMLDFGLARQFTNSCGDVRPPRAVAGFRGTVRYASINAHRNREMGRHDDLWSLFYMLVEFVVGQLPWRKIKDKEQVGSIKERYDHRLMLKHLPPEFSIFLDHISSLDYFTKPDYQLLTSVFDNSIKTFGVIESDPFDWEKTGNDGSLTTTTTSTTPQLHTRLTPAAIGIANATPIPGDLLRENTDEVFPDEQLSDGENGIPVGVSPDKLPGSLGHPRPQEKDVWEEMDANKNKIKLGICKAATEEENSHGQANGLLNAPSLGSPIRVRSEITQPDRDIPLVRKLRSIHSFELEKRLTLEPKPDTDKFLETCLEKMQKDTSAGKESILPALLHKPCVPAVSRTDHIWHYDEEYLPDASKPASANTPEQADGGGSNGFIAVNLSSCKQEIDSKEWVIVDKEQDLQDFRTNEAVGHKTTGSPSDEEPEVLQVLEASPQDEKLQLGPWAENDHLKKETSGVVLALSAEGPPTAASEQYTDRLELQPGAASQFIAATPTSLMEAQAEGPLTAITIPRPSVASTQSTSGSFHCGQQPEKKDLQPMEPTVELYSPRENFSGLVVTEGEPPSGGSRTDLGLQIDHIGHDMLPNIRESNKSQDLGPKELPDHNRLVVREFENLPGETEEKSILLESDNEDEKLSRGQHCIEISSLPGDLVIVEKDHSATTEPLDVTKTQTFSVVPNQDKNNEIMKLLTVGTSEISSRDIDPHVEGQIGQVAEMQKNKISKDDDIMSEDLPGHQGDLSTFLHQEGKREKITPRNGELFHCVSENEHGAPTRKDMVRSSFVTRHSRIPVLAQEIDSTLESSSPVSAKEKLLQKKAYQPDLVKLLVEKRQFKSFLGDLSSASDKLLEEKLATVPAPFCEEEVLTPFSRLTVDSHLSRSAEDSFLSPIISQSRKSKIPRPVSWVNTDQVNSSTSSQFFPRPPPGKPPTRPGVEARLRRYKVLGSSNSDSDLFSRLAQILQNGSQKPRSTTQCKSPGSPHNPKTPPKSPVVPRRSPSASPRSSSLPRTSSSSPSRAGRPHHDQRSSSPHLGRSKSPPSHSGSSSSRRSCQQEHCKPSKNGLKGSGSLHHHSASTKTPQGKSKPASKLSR

[28] = biological target: D(1A) dopamine receptor (Homo sapiens) (UniProt P21728); conditions: Compound concentration 10.0 uM, tested as the 2H-labelled form
[29] = biological target: Tyrosine-protein kinase HCK (Homo sapiens) (UniProt P08631); assay: Hck(h) Kinase panel; conditions: Compound concentration 1.0 uM, tested as the 2H-labelled form
[30] = biological target: Wee1-like protein kinase (Homo sapiens) (UniProt P30291); assay: Wee1(h) Kinase panel; conditions: Compound concentration 1.0 uM, tested as the 2H-labelled form
Sequence of Wee1-like protein kinase (Homo sapiens) (P30291 whole entry, looked up): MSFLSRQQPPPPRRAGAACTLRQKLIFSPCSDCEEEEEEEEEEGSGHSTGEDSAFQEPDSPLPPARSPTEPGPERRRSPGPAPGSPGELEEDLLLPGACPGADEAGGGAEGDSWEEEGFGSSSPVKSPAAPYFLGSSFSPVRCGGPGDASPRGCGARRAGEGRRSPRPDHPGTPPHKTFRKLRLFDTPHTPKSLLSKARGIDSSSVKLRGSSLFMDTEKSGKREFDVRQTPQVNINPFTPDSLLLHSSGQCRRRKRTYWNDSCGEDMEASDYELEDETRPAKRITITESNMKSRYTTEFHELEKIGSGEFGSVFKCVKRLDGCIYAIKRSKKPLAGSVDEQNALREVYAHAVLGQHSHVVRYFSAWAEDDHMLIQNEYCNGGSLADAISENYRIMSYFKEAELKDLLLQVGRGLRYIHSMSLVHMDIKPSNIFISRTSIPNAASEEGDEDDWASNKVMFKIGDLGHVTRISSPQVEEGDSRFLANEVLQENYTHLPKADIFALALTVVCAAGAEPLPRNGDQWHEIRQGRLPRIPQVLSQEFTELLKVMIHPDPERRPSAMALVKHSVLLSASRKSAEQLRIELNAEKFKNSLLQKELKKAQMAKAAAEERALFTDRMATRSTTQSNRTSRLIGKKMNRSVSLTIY

[31] = biological target: Protein kinase C zeta type (Homo sapiens) (UniProt Q05513); assay: PKCzeta(h) Kinase panel; conditions: Compound concentration 1.0 uM, tested as the 2H-labelled form
Sequence of Protein kinase C zeta type (Homo sapiens) (Q05513 whole entry): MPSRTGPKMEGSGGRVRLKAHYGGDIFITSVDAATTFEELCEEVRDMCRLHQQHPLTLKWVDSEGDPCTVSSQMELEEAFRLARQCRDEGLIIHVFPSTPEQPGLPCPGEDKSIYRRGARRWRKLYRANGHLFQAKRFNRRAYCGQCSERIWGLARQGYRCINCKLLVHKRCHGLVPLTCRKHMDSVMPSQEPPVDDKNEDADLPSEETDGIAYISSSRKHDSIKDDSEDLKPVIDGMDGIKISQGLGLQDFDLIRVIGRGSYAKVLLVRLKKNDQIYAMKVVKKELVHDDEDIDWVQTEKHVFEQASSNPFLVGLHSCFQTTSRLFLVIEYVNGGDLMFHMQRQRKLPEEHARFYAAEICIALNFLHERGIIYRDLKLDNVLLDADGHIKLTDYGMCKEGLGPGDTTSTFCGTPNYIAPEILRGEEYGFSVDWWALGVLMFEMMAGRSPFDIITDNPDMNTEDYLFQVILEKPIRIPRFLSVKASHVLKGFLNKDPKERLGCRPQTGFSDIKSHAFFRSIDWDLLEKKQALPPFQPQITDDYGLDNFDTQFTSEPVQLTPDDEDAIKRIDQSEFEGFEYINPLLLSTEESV

[32] = biological target: Activin receptor type-1-like (Homo sapiens) (UniProt P37023); assay: ALK1(h) Kinase panel; conditions: Compound concentration 1.0 uM, tested as the 2H-labelled form
[33] = biological target: Eukaryotic translation initiation factor 2-alpha kinase 1 (Homo sapiens) (UniProt Q9BQI3); assay: HRI(h) Kinase panel; conditions: Compound concentration 1.0 uM, tested as the 2H-labelled form
[34] = biological target: Serine/threonine-protein kinase 35 (Homo sapiens) (UniProt Q8TDR2); assay: CLIK1(h) Kinase panel; conditions: Compound concentration 1.0 uM, tested as the 2H-labelled form
[35] = biological target: Ephrin type-A receptor 7 (Homo sapiens) (UniProt Q15375); assay: EphA7(h) Kinase panel; conditions: Compound concentration 1.0 uM, tested as the 2H-labelled form
Sequence of Ephrin type-A receptor 7 (Homo sapiens) (Q15375 28-998 limits assumed): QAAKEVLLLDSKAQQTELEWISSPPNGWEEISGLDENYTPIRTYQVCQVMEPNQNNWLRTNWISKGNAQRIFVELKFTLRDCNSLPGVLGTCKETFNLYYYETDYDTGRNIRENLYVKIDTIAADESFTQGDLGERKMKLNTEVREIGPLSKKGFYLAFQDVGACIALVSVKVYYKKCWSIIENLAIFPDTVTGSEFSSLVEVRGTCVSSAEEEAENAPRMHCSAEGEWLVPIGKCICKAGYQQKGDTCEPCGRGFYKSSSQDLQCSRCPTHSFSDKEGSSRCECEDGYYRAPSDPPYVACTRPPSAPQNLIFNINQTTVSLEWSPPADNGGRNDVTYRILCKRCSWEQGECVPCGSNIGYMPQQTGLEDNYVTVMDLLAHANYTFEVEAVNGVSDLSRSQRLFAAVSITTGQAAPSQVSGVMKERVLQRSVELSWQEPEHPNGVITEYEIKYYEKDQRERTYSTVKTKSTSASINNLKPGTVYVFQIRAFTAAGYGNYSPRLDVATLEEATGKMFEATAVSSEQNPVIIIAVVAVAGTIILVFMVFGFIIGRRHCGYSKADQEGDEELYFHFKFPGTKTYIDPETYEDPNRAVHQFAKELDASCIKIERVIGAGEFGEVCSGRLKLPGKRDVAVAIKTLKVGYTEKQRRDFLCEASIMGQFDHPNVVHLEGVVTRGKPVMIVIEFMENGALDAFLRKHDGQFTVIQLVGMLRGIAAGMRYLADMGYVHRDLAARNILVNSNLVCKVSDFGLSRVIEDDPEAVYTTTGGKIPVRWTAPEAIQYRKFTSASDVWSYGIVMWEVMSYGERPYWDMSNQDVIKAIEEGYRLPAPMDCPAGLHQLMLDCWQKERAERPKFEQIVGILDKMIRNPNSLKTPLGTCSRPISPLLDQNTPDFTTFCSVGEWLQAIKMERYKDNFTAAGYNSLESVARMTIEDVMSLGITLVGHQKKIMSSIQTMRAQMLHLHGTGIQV

[36] = biological target: AP2-associated protein kinase 1 (Homo sapiens) (UniProt Q2M2I8); assay: AAK1(h) Kinase panel; conditions: Compound concentration 1.0 uM, tested as the 2H-labelled form
[37] = biological target: NUAK family SNF1-like kinase 1 (Homo sapiens) (UniProt O60285); assay: ARK5(h) Kinase panel; conditions: Compound concentration 1.0 uM, tested as the 2H-labelled form
[38] = biological target: MAP kinase-activated protein kinase 2 (Homo sapiens) (UniProt P49137); assay: MAPKAP-K2(h) Kinase panel; conditions: Compound concentration 1.0 uM, tested as the 2H-labelled form
Sequence of MAP kinase-activated protein kinase 2 (Homo sapiens) (P49137 whole entry, looked up, canonical isoform): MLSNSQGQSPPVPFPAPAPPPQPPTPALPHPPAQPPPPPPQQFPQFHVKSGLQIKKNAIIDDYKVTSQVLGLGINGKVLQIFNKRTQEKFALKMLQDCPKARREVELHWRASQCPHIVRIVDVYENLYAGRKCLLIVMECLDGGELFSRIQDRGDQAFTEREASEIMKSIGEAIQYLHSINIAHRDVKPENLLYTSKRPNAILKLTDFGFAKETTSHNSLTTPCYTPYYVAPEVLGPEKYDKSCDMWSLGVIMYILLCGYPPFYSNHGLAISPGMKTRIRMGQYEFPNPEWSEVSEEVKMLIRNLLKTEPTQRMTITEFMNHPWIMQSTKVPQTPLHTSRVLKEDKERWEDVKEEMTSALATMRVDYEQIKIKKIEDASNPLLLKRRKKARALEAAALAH

[39] = biological target: Phosphatidylinositol 4,5-bisphosphate 3-kinase catalytic subunit alpha isoform (Homo sapiens) (UniProt P42336); assay: PI3 Kinase (p110a/p85a)(h) Kinase panel; conditions: Compound concentration 1.0 uM, tested as the 2H-labelled form
[40] = biological target: Tyrosine-protein kinase ITK/TSK (Homo sapiens) (UniProt Q08881); assay: Itk(h) Kinase panel; conditions: Compound concentration 1.0 uM, tested as the 2H-labelled form
[41] = biological target: Serine/threonine-protein kinase A-Raf (Homo sapiens) (UniProt P10398); assay: A-Raf(h) Kinase panel; conditions: Compound concentration 1.0 uM, tested as the 2H-labelled form
[42] = biological target: Protein kinase C beta type (Homo sapiens) (UniProt P05771); assay: PKCbetaI (h) Kinase panel; conditions: Compound concentration 1.0 uM, tested as the 2H-labelled form
Sequence of Protein kinase C beta type (Homo sapiens) (P05771 2-671 limits assumed): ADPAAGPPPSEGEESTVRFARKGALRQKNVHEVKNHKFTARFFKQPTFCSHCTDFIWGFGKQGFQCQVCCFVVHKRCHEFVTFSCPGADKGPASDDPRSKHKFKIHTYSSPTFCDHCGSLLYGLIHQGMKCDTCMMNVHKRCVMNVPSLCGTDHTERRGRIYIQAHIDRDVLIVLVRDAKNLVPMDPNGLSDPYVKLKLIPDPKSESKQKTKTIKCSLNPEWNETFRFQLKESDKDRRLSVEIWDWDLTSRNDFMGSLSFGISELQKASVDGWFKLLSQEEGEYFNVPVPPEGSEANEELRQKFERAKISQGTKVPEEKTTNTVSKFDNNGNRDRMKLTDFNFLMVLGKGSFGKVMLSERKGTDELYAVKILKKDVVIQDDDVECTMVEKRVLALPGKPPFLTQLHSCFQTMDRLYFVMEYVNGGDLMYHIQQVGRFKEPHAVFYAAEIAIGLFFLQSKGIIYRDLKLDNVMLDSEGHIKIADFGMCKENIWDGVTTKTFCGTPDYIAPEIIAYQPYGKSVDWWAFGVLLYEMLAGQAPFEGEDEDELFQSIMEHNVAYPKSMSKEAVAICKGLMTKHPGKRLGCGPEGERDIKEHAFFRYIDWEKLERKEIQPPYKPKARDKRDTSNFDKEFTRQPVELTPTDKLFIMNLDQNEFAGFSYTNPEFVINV

[43] = biological target: RAF proto-oncogene serine/threonine-protein kinase (Homo sapiens) (UniProt P04049); assay: c-RAF(h) Kinase panel; conditions: Compound concentration 1.0 uM, tested as the 2H-labelled form
[44] = biological target: Cyclin-dependent kinase 18 (Homo sapiens) (UniProt Q07002); assay: CDK18/cyclinY(h) Kinase panel; conditions: Compound concentration 1.0 uM, tested as the 2H-labelled form
[45] = biological target: Protein kinase C epsilon type (Homo sapiens) (UniProt Q02156); assay: PKCepsilon (h) Kinase panel; conditions: Compound concentration 1.0 uM, tested as the 2H-labelled form
[46] = biological target: Ephrin type-B receptor 4 (Homo sapiens) (UniProt P54760); assay: EphB4(h) Kinase panel; conditions: Compound concentration 1.0 uM, tested as the 2H-labelled form
[47] = biological target: Protein kinase C beta type (Homo sapiens) (UniProt P05771); assay: PKCbetaII (h) Kinase panel; conditions: Compound concentration 1.0 uM, tested as the 2H-labelled form
[48] = biological target: Ephrin type-A receptor 3 (Homo sapiens) (UniProt P29320); assay: EphA3(h) Kinase panel; conditions: Compound concentration 1.0 uM, tested as the 2H-labelled form
[49] = biological target: NT-3 growth factor receptor (Homo sapiens) (UniProt Q16288); assay: TrkC(h) Kinase panel; conditions: Compound concentration 1.0 uM, tested as the 2H-labelled form
[50] = biological target: Serine/threonine-protein kinase PLK4 (Homo sapiens) (UniProt O00444); assay: Plk4(h) Kinase panel; conditions: Compound concentration 1.0 uM, tested as the 2H-labelled form
[51] = biological target: G protein-coupled receptor kinase 6 (Homo sapiens) (UniProt P43250); assay: GRK6(h) Kinase panel; conditions: Compound concentration 1.0 uM, tested as the 2H-labelled form
[52] = biological target: Receptor-interacting serine/threonine-protein kinase 2 (Homo sapiens) (UniProt O43353); assay: RIPK2(h) Kinase panel; conditions: Compound concentration 1.0 uM, tested as the 2H-labelled form

Sequence of 5-hydroxytryptamine receptor 6 (Homo sapiens) (P50406 whole entry): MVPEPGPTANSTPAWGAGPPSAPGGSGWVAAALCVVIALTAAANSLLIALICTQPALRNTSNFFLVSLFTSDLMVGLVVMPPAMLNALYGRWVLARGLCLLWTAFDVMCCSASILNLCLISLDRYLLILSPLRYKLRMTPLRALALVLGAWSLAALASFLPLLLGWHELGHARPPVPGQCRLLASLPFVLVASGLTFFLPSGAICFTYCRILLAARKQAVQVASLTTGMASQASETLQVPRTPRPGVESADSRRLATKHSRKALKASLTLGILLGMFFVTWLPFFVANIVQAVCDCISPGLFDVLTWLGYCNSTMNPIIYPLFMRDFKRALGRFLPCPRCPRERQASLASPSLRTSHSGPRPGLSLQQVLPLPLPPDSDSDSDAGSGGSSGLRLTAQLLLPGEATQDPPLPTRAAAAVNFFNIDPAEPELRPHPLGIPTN

inhibition [1]: -1.55%
inhibition [2]: -9%
inhibition [3]: 1%
inhibition [4]: 10%
inhibition [5]: 5%
inhibition [6]: 9%
inhibition [7]: 16%
inhibition [8]: -1%
inhibition [9]: 9%
inhibition [10]: 33.4%
inhibition [11]: 9%
inhibition [12]: 15%
inhibition [13]: -4%
inhibition [14]: 0%
inhibition [15]: 7%
inhibition [16]: 0%
inhibition [17]: -1%
inhibition [18]: -9%
inhibition [19]: 37%
inhibition [20]: -5.3%
inhibition [21]: 1.04%
inhibition [22]: 9%
inhibition [23]: -8%
inhibition [24]: 1%
inhibition [25]: -1.28%
inhibition [26]: 1.82%
inhibition [27]: 0%
inhibition [28]: -1.8%
inhibition [29]: 25%
inhibition [30]: 10%
inhibition [31]: 5%
inhibition [32]: 4%
inhibition [33]: -6%
inhibition [34]: 13%
inhibition [35]: 8%
inhibition [36]: 5%
inhibition [37]: 1%
inhibition [38]: -1%
inhibition [39]: 2%
inhibition [40]: -8%
inhibition [41]: 12%
inhibition [42]: 4%
inhibition [43]: 12%
inhibition [44]: 4%
inhibition [45]: -5%
inhibition [46]: -2%
inhibition [47]: -3%
inhibition [48]: -6%
inhibition [49]: 23%
inhibition [50]: 16%
inhibition [51]: -9%
inhibition [52]: 2%
SMILES: CC1(C)Cn2nc(-c3ccc(F)cn3)c(-c3ccnc4[nH]ncc34)c2CO1
